Active and inactive are the calls of the source. The rule behind the calls is not given here.
Assays:
DU-145 [1] = test: Antitumor activity against human DU-145 cells xenografted in BALB/c nude mouse assessed as tumor growth inhibition at 60 mg/kg, ip measured upto 30 days; type: functional; settings: DU-145, 720 h, time <= 30 day, read-out: TGI
[2] = Chronic toxicity in rat assessed as neurological disorder at 15 to […] mg/kg, iv administered as pluronic F127 formulation at 4 intervals for 21 days and observed 3 weeks post last injection; type: organism-based; settings: in vivo, 2544 h, dose lower 15 mg/kg, time 106 day
[3] = Chronic toxicity in Soviet Chinchilla rabbit assessed as urine alkalization at 10.17 to 12.21 mg/kg, iv administered as pluronic F127 formulation at 4 intervals for 21 days and observed 3 weeks post last injection; type: organism-based, Oryctolagus cuniculus; settings: in vivo, 2544 h, dose 10.17-12.21 mg/kg, time 106 day
[4] = Volume of distribution in Albino Wistar rat at 15 mg/kg, iv administered as pluronic F127 formulation measured upto 72 hrs by high-performance liquid chromatography tandem mass spectrometric analysis; type: ADME, organism-based; settings: in vivo
[5] = Toxicity in BALB/c nude mouse xenografted with human DU-145 cells assessed as animal death at 30 to 60 mg/kg, ip measured upto 30 days; type: organism-based; settings: in vivo, 720 h, dose 30-60 mg/kg, time < 30 day
[6] = Acute toxicity in Wistar rat assessed as kidney lesion at 15 to 279 mg/kg, iv administered as pluronic F127 formulation and measured for 14 days; type: organism-based; settings: in vivo, 336 h, dose 15-279 mg/kg, time 14 day
CWR22R [7] = test: Antitumor activity against human 22Rv1 cells xenografted in Balb/c nude mouse assessed as tumor growth inhibition at 20 mg/kg, ip administered once in two days for three times and measured 7 days after the end of treatment relative to control; type: functional; settings: 22Rv1, 312 h, time 13 day, read-out: TGI
[8] = Subchronic toxicity in Wistar rat assessed as diarrhoea at 58 mg/kg, iv administered as pluronic F127 formulation daily for 28 days and observed on days 4 to 5; type: organism-based; settings: in vivo, 672 h, time 28 day
PC-3 = test: Induction of ROS generation in human PC-3 cells at 800 mV holding potential measured after 1 hr by patch clamp amplifier based optical inverted microscopic analysis; type: functional, cell-based
[9] = Chronic toxicity in Soviet Chinchilla rabbit assessed as external signs of intoxication administered intravenously as pluronic F127 formulation at 4 intervals for 21 days and observed 3 weeks post last injection; set-up: species or system Oryctolagus cuniculus; settings: in vivo, iv, 2544 h, time 106 day
Liver carboxylesterase = molecular target: T1, Liver carboxylesterase (Sus scrofa, UniProt Q29550); test: Stability of the compound in porcine liver esterase assessed as compound remaining measured upto 96 hrs by LCMS based mass spectrometric analysis relative to initial amount; type: ADME; settings: pig, read-out: Stability
T1 sequence (Q29550 whole entry): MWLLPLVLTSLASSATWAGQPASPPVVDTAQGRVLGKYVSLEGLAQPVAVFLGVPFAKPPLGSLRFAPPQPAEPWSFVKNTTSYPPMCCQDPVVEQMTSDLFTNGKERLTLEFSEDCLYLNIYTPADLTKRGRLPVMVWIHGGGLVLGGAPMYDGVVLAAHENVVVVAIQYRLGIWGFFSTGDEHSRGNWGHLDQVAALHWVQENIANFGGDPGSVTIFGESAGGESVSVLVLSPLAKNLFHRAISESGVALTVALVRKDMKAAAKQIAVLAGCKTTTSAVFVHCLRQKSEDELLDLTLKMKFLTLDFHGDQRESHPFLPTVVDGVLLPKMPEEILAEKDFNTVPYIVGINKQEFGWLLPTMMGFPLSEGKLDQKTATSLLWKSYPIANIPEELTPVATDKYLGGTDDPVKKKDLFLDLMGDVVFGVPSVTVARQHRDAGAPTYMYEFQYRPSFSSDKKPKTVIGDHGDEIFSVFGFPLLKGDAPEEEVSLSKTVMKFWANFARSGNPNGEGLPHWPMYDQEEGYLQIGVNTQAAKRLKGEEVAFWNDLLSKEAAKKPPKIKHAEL

[10] = Chronic toxicity in rat assessed as increase in relative mass of liver at 15 to 22.5 mg/kg, iv administered as pluronic F127 formulation at 4 intervals for 21 days and observed 3 weeks post last injection relative to control; type: organism-based; settings: in vivo, 2544 h, dose 15-22.5 mg/kg, time 106 day
[11] = Acute toxicity in ICR mouse assessed as animal death at 183 to 960 mg/kg, iv administered for 14 days as pluronic F127 formulation and measured after 5 days; type: organism-based; settings: in vivo, 456 h, dose 183-960 mg/kg, time 19 day
DU-145 [12] = test: Antitumor activity against human DU-145 cells xenografted in BALB/c nude mouse assessed as tumor growth inhibition at 30 mg/kg, ip measured upto 30 days; type: functional; settings: DU-145, 720 h, time <= 30 day, read-out: TGI
[13] = Chronic toxicity in rat assessed as decrease in relative mass of testes administered intravenously as pluronic F127 formulation at 4 intervals for 21 days and observed 3 weeks post last injection relative to control; settings: in vivo, iv, 2544 h, time 106 day
[14] = Acute toxicity in ICR mouse assessed as decrease in body weight administered intravenously as pluronic F127 formulation and measured for 14 days; settings: in vivo, iv, 336 h, dose 183-960 mg/kg, time 14 day
CWR22R [15] = test: Antitumor activity against human 22Rv1 cells xenografted in Balb/c nude mouse assessed as tumor growth inhibition at 20 mg/kg, ip administered once in two days for three times and measured 1 day after the end of treatment relative to control; type: functional; settings: 22Rv1, 168 h, time 7 day, read-out: TGI
[16] = Chronic toxicity in rat assessed as increase in relative lung mass administered intravenously as pluronic F127 formulation for 4 intervals of 21 days and observed 3 weeks post last injection relative to control; settings: in vivo, iv, 2544 h, time 106 day
CWR22R [17] = test: Antitumor activity against human 22Rv1 cells xenografted in Balb/c nude mouse assessed as tumor growth inhibition at 10 mg/kg, ip administered once in two days for three times and measured 7 days after the end of treatment relative to control; type: functional; settings: 22Rv1, 312 h, time 13 day, read-out: TGI
CWR22R [18] = test: Cytotoxicity against human 22Rv1 cells assessed as reduction in cell viability measured after 72 hrs by MTT assay; type: functional
[19] = Chronic toxicity in rat assessed as increase in relative mass of adrenal gland administered intravenously as pluronic F127 formulation at 4 intervals for 21 days and observed 3 weeks post last injection relative to control; type: tissue-based; settings: in vivo, iv, 2544 h, time 106 day
[20] = Acute toxicity in Wistar rat assessed as liver damage at 15 to 279 mg/kg, iv administered as pluronic F127 formulation and measured for 14 days; type: organism-based; settings: in vivo, 336 h, dose 15-279 mg/kg, time 14 day
[21] = Subchronic toxicity in Wistar rat assessed as decrease in body weight at 58 mg/kg, iv administered as pluronic F127 formulation daily for 28 days; type: organism-based; settings: in vivo, 672 h, time 28 day
[22] = Chronic toxicity in Soviet Chinchilla rabbit assessed as increase in body weight at 12.21 mg/kg, iv administered as pluronic F127 formulation at 4 intervals for 21 days and observed 3 weeks post last injection relative to control; type: organism-based, Oryctolagus cuniculus; settings: in vivo, 2544 h, time 106 day
[23] = Chronic toxicity in rat assessed as change in volume of excreted urine at 18.75 to 22.5 mg/kg, iv administered as pluronic F127 formulation at 4 intervals for 21 days and observed 3 weeks post last injection; type: organism-based; settings: in vivo, 2544 h, dose 18.75-22.5 mg/kg, time 106 day

CC(=O)O[C@@]12CO[C@@H]1C[C@H](O)[C@@]1(C)C(=O)[C@H](O)C3=C(C)[C@@H](OC(=O)[C@H](OC(=O)CCCc4cn(CCCNC(=O)[C@H](Cc5ccc(O)cc5)NC(=O)[C@H](Cc5ccccc5)NC(=O)CCC(=O)NCCCCCC(=O)N(CCCC[C@H](NC(=O)N[C@@H](CCC(=O)O)C(=O)O)C(=O)O)Cc5cccc(Cl)c5)nn4)[C@@H](NC(=O)OC(C)(C)C)c4ccccc4)C[C@@](O)([C@@H](OC(=O)c4ccccc4)[C@H]21)C3(C)C
inhibition in vivo at 60 mg/kg (DU-145 [1]): 83.7%
Activity [2]: Non-Toxic
Activity [3]: Toxic
Vd [4]: 0.631 L/kg
Activity [5]: Non-Toxic
Activity [6]: Toxic
inhibition in vivo at 20 mg/kg (CWR22R [7]): 85%
Activity [8]: Toxic
Activity (PC-3): Active
Activity [9]: Non-Toxic
remaining at 96 h (Liver carboxylesterase): 60%
Activity [10]: Toxic
Activity [11]: Toxic
inhibition in vivo at 30 mg/kg (DU-145 [12]): 81.7%
Activity [13]: Toxic
Activity [14]: Toxic
inhibition in vivo at 20 mg/kg (CWR22R [15]): 78%
Activity [16]: Toxic
inhibition in vivo at 10 mg/kg (CWR22R [17]): 87%
CC50 (CWR22R [18]): 2.7 nM
Activity [19]: Toxic
Activity [20]: Toxic
Activity [21]: Toxic
Activity [22]: Toxic
Activity [23]: Toxic

Reference: ChEMBL document CHEMBL5131389, “PSMA-targeted small-molecule docetaxel conjugate: Synthesis and preclinical evaluation” (Eur J Med Chem, 2022)
